Source: US10011615B2, “Heterobicyclo-substituted [1,2,4]triazolo[1,5-c]quinazolin-5-amine compounds with A2A anatagonist properties” (Merck Sharp & Dohme Corp., priority 2012, dated 2018)
Values joined by “and” are separate entries in the source; they are usually repeats but may differ in a detail not shown here. Equal values may be shown once.

Biological target: T1, human A2a receptor (Homo sapiens, UniProt P29274)
T1 construct: purchased Perkin-Elmer RBHA2AM400UA; host or cells: HEK293 cell membranes
Assay: A2a receptor competition binding assay using Scintillation Proximity technology
Conditions: membranes from HEK293 cells expressing human A2a receptor; 0.5 nM tritiated radioligand; SPA beads; 1 h room temperature
Description: Binding affinities of compounds of the invention for the human A2a receptor were determined in a competition binding assay using Scintillation Proximity technology. Thus, 0.3 μg of membranes from HEK293 cells expressing the human A2a receptor were incubated with a compound of the invention at concentrations ranging from 3000 nM to 0.15 nM in a reaction mixture containing also 0.5 nM of a tritiated form of 5-amino-7-[2-phenethyl]-2-(furan-2-yl)-7H-pyrazolo[4,3-e][1,2,4]triazolo[1,5-c]pyrimidine (the tritiated compound) and 100 μg of wheat germ agglutin-coated yttrium silicate SPA beads for one hour at room temperature with agitation. The beads were then allowed to settle to the bottom of the wells for 1 hr, after which the membrane-associated radioactivity was determined by scintillation counting in a TopCount microplate reader. Ki values were determined using the Cheng-Prusoff equation.
Summary of Materials and Methods Used in A2a Activity Determination:
HEK293 cells expressing the human, rat, dog or monkey adenosine 2a receptor (Purchased from Perkin-Elmer # RBHA2AM400UA).
The Tritiated compound was prepared in-house by MRL Radiochemistry according to published methods.
Wheat germ agglutinin-coated yttrium silicate SPA beads (GE Healthcare#RPNQ0023). Dilute to 25 mg/ml in assay buffer.
Assay Buffer was prepared in house: Dulbecco's calcium and magnesium free phosphate buffered saline+10 mM MgCl2
Adenosine deaminase from calf intestine, 10 mg/2 ml (Roche) 10 102 105 001).
A2a antagonist standard (9-chloro-1-(2-furanyl)-[1,2,4]triazolo1,5-c]quinazolin-5-amine from Tocris Bioscience)
Make eight 1:3 serial dilutions in 100% DMSO from a 3 mM compound stock
Transfer 50 nl of compound into a 384-well OptiPlate (Perkin Elmer).
Typically, final concentrations of compound used in the assay ranged from 3000 nM to 0.152 nM.
Dilute a solution of the Tritiated compound to 1.25 nM in assay buffer. This is a 2.5× solution. The final concentration in the assay is 0.5 nM. Calculate the concentration by counting two 5 μl aliquots.
Use 0.25 ug of membrane/well. Dilute membranes to 9.7 μg/ml in assay buffer. Treat with 20 ug/ml adenosine deaminase (ADA) for 15 minutes at room temperature to degrade endogenous adenosine.
Use 100 μg/well wheat germ agglutinin-coated yttrium silicate SPA beads.
Mix ADA-treated membranes and SPA beads together for 30 min prior to assay.
To the Perkin-Elmer Optiplate-384 containing the compound titration add 20 μl of 2.5× solution of the Tritiated compound and 30 μl of the membrane-bead mixture. Incubate for one hour at room temperature with agitation.
Include total binding (assay buffer+1% DMSO) and non-specific binding (CGS15943, 1 μM) wells.
Allow the beads to settle for one hour.
A curve fitting program (i.e., Prism, Activity Base, Chemcart) is used to determine the EC50. The Ki value is calculated using the Cheng-Prusoff equation: K i=EC50/(1+(radioligand concentration/Kd)).

T1 sequence (P29274 whole entry): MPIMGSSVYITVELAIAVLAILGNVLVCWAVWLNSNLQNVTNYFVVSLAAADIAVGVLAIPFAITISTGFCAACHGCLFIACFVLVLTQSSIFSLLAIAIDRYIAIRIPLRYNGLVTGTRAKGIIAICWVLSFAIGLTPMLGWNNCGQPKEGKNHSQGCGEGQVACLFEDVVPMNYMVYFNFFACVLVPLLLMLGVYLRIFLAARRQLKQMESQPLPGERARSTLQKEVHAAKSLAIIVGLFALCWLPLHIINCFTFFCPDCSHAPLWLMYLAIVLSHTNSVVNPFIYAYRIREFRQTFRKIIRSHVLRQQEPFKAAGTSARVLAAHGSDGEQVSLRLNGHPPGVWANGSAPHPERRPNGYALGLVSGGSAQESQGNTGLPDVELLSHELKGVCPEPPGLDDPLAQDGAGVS

Row | SMILES | EC50
1 | COc1cccc2c1nc(N)n1nc(CCN3CCn4c(nnc4SC)C3)nc21 [Ex-1, 7-methoxy-2-(2-(3-(methylthio)-5,6-dihydro-[1,2,4]triazolo[4,3-a]pyrazin-7(8H)-yl)ethyl)-[1,2,4]triazolo[1,5-c]quinazolin-5-amine] | 4 nM
2 | COc1cccc2c1nc(N)n1nc(CCN3CCn4c(nnc4C(=O)NC(C)(C)C)C3)nc21 [Ex-2, 7-(2-(5-amino-7-methoxy-[1,2,4]triazolo[1,5-c]quinazolin-2-yl)ethyl)-N-tert-butyl-5,6,7,8-tetrahydro-[1,2,4]triazolo[4,3-a]pyrazine-3-carboxamide] | 2.9 nM
3 | COc1cccc2c1nc(N)n1nc(CCN3CCn4c(Br)nnc4C3)nc21 [Ex-3, 2-(2-(3-bromo-5,6-dihydro-[1,2,4]triazolo[4,3-a]pyrazin-7(8H)-yl)ethyl)-7-methoxy-[1,2,4]triazolo[1,5-c]quinazolin-5-amine] | 3.4 nM
4 | CCOC(=O)c1nnc2n1CCN(CCc1nc3c4cccc(OC)c4nc(N)n3n1)C2 [Ex-4, ethyl 7-(2-(5-amino-7-methoxy-[1,2,4]triazolo[1,5-c]quinazolin-2-yl)ethyl)-5,6,7,8-tetrahydro-[1,2,4]triazolo[4,3-a]pyrazine-3-carboxylate] | 4.6 nM
5 | COc1cccc2c1nc(N)n1nc(CCN3Cc4ccc(Cl)nc4C3)nc21 [Ex-5, 2-(2-(2-chloro-5H-pyrrolo[3,4-b]pyridin-6(7H)-yl)ethyl)-7-methoxy-[1,2,4]triazolo[1,5-c]quinazolin-5-amine] | 4.7 nM
6 | COc1cccc2c1nc(N)n1nc(CCN3CCc4c(Br)ccnc4C3)nc21 [Ex-6, 2-(2-(4-bromo-5,6-dihydro-1,7-naplithyridin-7(8H)-yl)ethyl)-7-methoxy-[1,2,4]triazolo[1,5-c]quinazolin-5-amine] | 5.9 nM
7 | COc1cccc2c1nc(N)n1nc(CCN3CCc4c(cnn4C4CC4)C3)nc21 [Ex-7, 2-(2-(1-cyclopropyl-6,7-dihydro-1H-pyrazolo[4,3-c]pyridin-5(4H)-yl)ethyl)-7-methoxy-[1,2,4]triazolo[1,5-c]iquinazolin-5-amine] | 1.4 nM
8 | COc1cccc2c1nc(N)n1nc(CCN3CCn4c(cnc4C(C)C)C3)nc21 [Ex-8, 2-(2-(3-isopropyl-5,6-dihydroimidazo[1,5-a]pyrazin-7(8H)-yl)ethyl)-7-methoxy-[1,2,4]triazolo[1,5-c]quinazolin-5-amine] | 2.2 nM
9 | COc1cccc2c1nc(N)n1nc(CCN3CCc4noc(C(F)(F)F)c4C3)nc21 [Ex-9, 7-methoxy-2-(2-(3-(trifluoromethyl)-6,7-dihydroisoxazolo[4,3-c]pyridin-5(4H)-yl)ethyl)-[1,2,4]triazolo[1,5-c]quinazolin-5-amine] | 2.1 nM
10 | COc1cccc2c1nc(N)n1nc(CCN3CCn4cc(C(=O)C5CC5)nc4C3)nc21 [Ex-10, (7-(2-(5-amino-7-methoxy[1,2,4]triazolo[1,5-c]quinazolin-2-yl)ethyl)-5,6,7,8-tetrahydroimidazo[1,2-a]pyrazin-2-yl)(cyclopropyl)methanone] | 1.2 nM
11 | COc1cccc2c1nc(N)n1nc(CCN3CCn4nc(C(F)(F)F)nc4C3)nc21 [Ex-11] | 2.7 nM
12 | COc1cccc2c1nc(N)n1nc(CCN3CCn4nc(C5CC5)nc4C3)nc21 [Ex-12, 2-(2-(2-cyclopropyl-5,6-dihydro-[1,2,4]triazolo[1,5-a]pyrazin-7(8H)-yl)ethyl)-7-methoxy-[1,2,4]triazolo[1,5-c]quinazolin-5-amine] | 2 nM
13 | CCc1ncc2n1CCN(CCc1nc3c4cccc(OC)c4nc(N)n3n1)C2 [Ex-13, 2-(2-(3-ethyl-5,6-dihydroimidazo[1,5-a]pyrazin-7(8H)-yl)ethyl)-7-methoxy-[1,2,4]triazolo[1,5-c]quinazolin-5-amine] | 2.2 nM
14 | COc1cccc2c1nc(N)n1nc(CCN3Cc4nc(C)sc4C3)nc21 [Ex-14, 7-methoxy-2-(2-(2-methyl-4H-pyrrolo[3,4-d]thiazol-5(6H)-yl)ethyl)-[1,2,4]triazolo[1,5-c]quinazolin-5-amine] | 1.5 nM
15 | COc1cccc2c1nc(N)n1nc(CCN3CCc4c(sc(C5CC5)c4C#N)C3)nc21 [Ex-15, 6-(2-(5-amino-7-methoxy-[1,2,4]triazolo[1,5-c]quinazolin-2-yl)ethyl)-2-cyc1opropyl-4,5,6,7-tetrahydrothieno[2,3-c]pyridine-3-carbonitri1e] | 2.2 nM
16 | COc1cccc2c1nc(N)n1nc(CCN3CCc4nc(C(F)(F)F)[nH]c4C3)nc21 [Ex-16, 7-methoxy-2-(2-(2-(trifluoromethyl)-6,7-dihydro-3H-imidazo[4,5-c]pyridin-5(4H)-yl)ethyl)-[1,2,4]triazolo[1,5-c]quinazolin-5-amine] | 2.3 nM
17 | COc1cccc2c1nc(N)n1nc(CCN3CCn4c(nnc4C(F)(F)F)C3)nc21 [Ex-17, 7-methoxy-2-(2-(3-(trifluoromethyl)-5,6-dihydro[1,2,4]triazolo[4,3-a]pyrazin-7(8H)-yl)ethyl)-[1,2,4]triazolo[1,5-c]quinazolin-5-amine] | 9.6 nM
18 | COc1cccc2c1nc(N)n1nc(CCN3Cc4cnc(C(F)(F)F)nc4C3)nc21 [Ex-18, 7-methoxy-2-(2-(2-(trifluoromethyl)-5H-pyrrolo[3,4-d]pyrimidin-6(7H)-yl)ethyl)-[1,2,4]triazolo[1,5-c]quinazolin-5-amine] | 13.3 nM
19 | COc1cccc2c1nc(N)n1nc(CCN3Cc4cncnc4C3)nc21 [Ex-19, 2-(2-(5H-pyrrolo[3,4-d]pyrimidin-6(7H)-yl)ethyl)-7-methoxy-[1,2,4]triazolo[1,5-c]quinazolin-5-amine] | 7.6 nM
20 | COc1cccc2c1nc(N)n1nc(CCN3CCCCc4cccnc43)nc21 [Ex-20, 2-(2-(7,8-dihydro-5H-pyrido[2,3-b]azepin-9(6H)-yl)ethyl)-7-methoxy-[1,2,4]triazolo[1,5-c]quinazolin-5-amine] | 12.8 nM
21 | COc1cccc2c1nc(N)n1nc(CCN3CCc4cccnc43)nc21 [Ex-21, 2-(2-(2,3-dihydro-1H-pyrrolo[2,3-b]pyridin-1-yl)ethyl)-7-methoxy-[1,2,4]triazolo[1,5-c]quinazolin-5-amine] | 31.2 nM
22 | CCc1nnc2n1CCN(CCc1nc3c4cccc(OC)c4nc(N)n3n1)C2 [Ex-22, 2-(2-(3-ethyl-5,6-dihydro-[1,2,4]triazolo[4,3-a]pyrazin-7(8H)-yl)ethyl)-7-methoxy-[1,2,4]triazolo[1,5-c]quinazolin-5-amine] | 6.7 nM
23 | COc1cccc2c1nc(N)n1nc(CCN3Cc4cnc(C)nc4C3)nc21 [Ex-23, 7-methoxy-2-(2-(2-methyl-5H-pyrrolo[3,4-d]pyrimidin-6(7H)-yl)-ethyl)-[1,2,4]triazolo[1,5-c]quinazolin-5-amine] | 4.4 nM and 6.6 nM
24 | COc1cccc2c1nc(N)n1nc(CCN3Cc4ccccc4C3)nc21 [Ex-24, 2-(2-(isoindolin-2-yl)ethyl)-7-methoxy-[1,2,4]triazolo[1,5-c]quinazolin-5-amine] | 11.1 nM
25 | COc1cccc2c1nc(N)n1nc(CCN3CCc4sc(C)nc4C3)nc21 [Ex-25, 7-methoxy-2-(2-(2-methyl-6,7-dihydrothiazolo[4,5-c]pyridin-5(4H)-yl)ethyl)-[1,2,4]triazolo[1,5-c]quinazolin-5-amine] | 0.9 nM
26 | COc1cccc2c1nc(N)n1nc(CCN3CCc4sc(C(F)(F)F)nc4C3)nc21 [Ex-26, 7-methoxy-2-(2-(2-(trifluoromethyl)-6,7-dihydrothiazolo[4,5-c]pyridin-5(4H)-yl)ethyl)-[1,2,4]triazolo[1,5-c]quinazolin-5-amine] | 0.5 nM
27 | COc1cccc2c1nc(N)n1nc(CCN3CCc4oc(C)nc4C3)nc21 [Ex-27, 7-methoxy-2-(2-(2-methyl-6,7-dihydrooxazolo[4,5-c]pyridin-5(4H)-yl)ethyl)-[1,2,4]triazolo[1,5-c]quinazolin-5-amine] | 1.6 nM
28 | COc1cccc2c1nc(N)n1nc(CCN3CCc4nc(C)oc4C3)nc21 [Ex-28, 7-methoxy-2-(2-(2-methyl-6,7-dihydrooxazolo[5,4-c]pyridin-5(4H)-yl)ethyl)-[1,2,4]triazolo[1,5-c]quinazolin-5-amine] | 2.2 nM
29 | COc1cccc2c1nc(N)n1nc(CCN3CCc4nc(C)sc4C3)nc21 [Ex-29, 7-methoxy-2-(2-(2-methyl-6,7-dihydrothiazolo[5,4-c]pyridin-5(4H)-yl)ethyl)-[1,2,4]triazolo[1,5-c]quinazolin-5-amine] | 1.7 nM
